Laboratory results: patent US10633407B2, “14-membered ketolides and methods of their preparation and use” (President and Fellows of Harvard College, priority 2014, dated 2020)
In brackets after ≈: the same amount, converted by molar mass.

What was measured:
Assay in all cases: CLSI broth dilution MIC determination
Format in all cases: cell-based
P. aeruginosa ATCC 27853 = settings: P. aeruginosa ATCC 27853; Gram-negative
K. pneumoniae ATCC 10031 = settings: K. pneumoniae ATCC 10031; Gram-negative
E. faecalis ATCC 29212 = settings: E. faecalis ATCC 29212; Gram-positive
K. pneumoniae KPC-2 = settings: Gram-negative
A. baumannii ATCC 19606 = settings: A. baumannii ATCC 19606; Gram-negative
[1] = tested on: A. baumannii chromosomal class C; settings: Gram-negative
[2] = tested on: E. faecalis Vancomycin-resistant; settings: E. faecalis Vancomycin-resistant; Gram-positive
K. pneumoniae SHV-12 = settings: Gram-negative
[3] = tested on: P. aeruginosa HPA101-1477; settings: Gram-negative
[4] = tested on: H. influenzae Erythro >4, Azithro 1; settings: H. influenzae Erythro >4, Azithro 1; Gram-negative
Source text: MIC data was collected for the novel macrolides that this platform has produced against over 21 unique strains of B. subtilis, E. coli, S. aureus, S. pneumoniae, and H. influenzae, including several multidrug-resistant strains, with a special focus on macrolide resistant mechanisms (vide supra). […] CLSI standard procedures for broth dilution MIC determination were used. […] These genotypes can be constitutive or inducible.

S. pyogenes ATCC 19615 = settings: S. pyogenes ATCC 19615; Gram-positive
[5] = tested on: S. pneumoniae mef A genotype (second strain so labelled); settings: Gram-positive
Summary of the method: (§1)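 Broth dilution MICs determined by CLSI standard procedures across a strain panel that includes multidrug- and macrolide-resistant strains. Resistance genotypes may be constitutive or inducible.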

E. coli TEM-1 = settings: E. coli TEM-1; Gram-negative
Summary of the method: as §1

S. aureus MRSA: USA100 = settings: S. aureus MRSA: USA100; Gram-positive
Summary of the method: as §1

E. coli NDM-1 = settings: Gram-negative
Summary of the method: as §1

S. aureus USA600, GISA = settings: S. aureus USA600, GISA; Gram-positive
Summary of the method: as §1

H. influenzae ATCC49247 = settings: Gram-negative
Summary of the method: as §1

E. coli ATCC 25922 = settings: E. coli ATCC 25922; Gram-negative
Summary of the method: as §1

S. aureus erm A genotype = settings: S. aureus erm A genotype; Gram-positive
Summary of the method: as §1

S. aureus ATCC 29213 = settings: S. aureus ATCC 29213; Gram-positive
Summary of the method: as §1

S. pneumoniae ATCC 49619 = settings: S. pneumoniae ATCC 49619; Gram-positive
Summary of the method: as §1

K. pneumoniae TEM-10 = settings: Gram-negative
E. coli CTX-M-14 = settings: Gram-negative
Summary of the method: as §1

[6] = tested on: S. pneumoniae erm B + mef A genotype; settings: S. pneumoniae erm B + mef A genotype; Gram-positive
Summary of the method: as §1

S. aureus MRSA: USA300 = settings: S. aureus MRSA: USA300; Gram-positive
Summary of the method: as §1

A. baumannii IMP-4 = settings: Gram-negative
[7] = tested on: A. baumannii imipenem-resistant; settings: Gram-negative
[8] = tested on: S. pyogenes Macrolide-resistant; settings: S. pyogenes Macrolide-resistant; Gram-positive

Compound	MIC (P. aeruginosa ATCC 27853) [µg/mL]	MIC (K. pneumoniae ATCC 10031) [µg/mL]	MIC (E. faecalis ATCC 29212) [µg/mL]	MIC (K. pneumoniae KPC-2) [µg/mL]	MIC (A. baumannii ATCC 19606) [µg/mL]	MIC [1] [µg/mL]	MIC [2] [µg/mL]	MIC (K. pneumoniae SHV-12) [µg/mL]	MIC [3] [µg/mL]	MIC [4] [µg/mL]	MIC (S. pyogenes ATCC 19615) [µg/mL]	MIC [5] [µg/mL]	MIC (E. coli TEM-1) [µg/mL]	MIC (S. aureus MRSA: USA100) [µg/mL]	MIC (E. coli NDM-1) [µg/mL]	MIC (S. aureus USA600, GISA) [µg/mL]	MIC (H. influenzae ATCC49247) [µg/mL]	MIC (E. coli ATCC 25922) [µg/mL]	MIC (S. aureus erm A genotype) [µg/mL]	MIC (S. aureus ATCC 29213) [µg/mL]	other results
CC[C@H]1OC(=O)[C@H](C)C(=O)[C@H](C)[C@@H](O[C@@H]2OC(C)CC(N(C)C)C2O)[C@](C)(OC)C[C@@H](C)C(=O)[C@H](C)[C@H]2N(C/C=C\Cn3cc(-c4cccc(N)c4)nn3)C(=O)O[C@]12C (some centres unmarked) [FSM-100423]	> 32	16 (≈ 19.4 µM)	< 0.0312	> 32	32 (≈ 38.8 µM)	32 (≈ 38.8 µM)	> 32	> 32	> 32	4 (≈ 4.85 µM)	< 0.0312	< 0.0312	> 32	> 32	> 32	> 32	2 (≈ 2.42 µM)	> 32	> 32	0.125 (≈ 0.152 µM)	MIC (S. pneumoniae ATCC 49619): < 0.0312 µg/mL; MIC (K. pneumoniae TEM-10): > 32 µg/mL; MIC (E. coli CTX-M-14): > 32 µg/mL; MIC [6]: 0.0625 µg/mL; MIC (S. aureus MRSA: USA300): > 32 µg/mL; MIC (A. baumannii IMP-4): > 32 µg/mL; MIC [7]: 32 µg/mL (≈ 38.8 µM); MIC [8]: < 0.0312 µg/mL
CC[C@H]1OC(=O)[C@@](C)(F)C(=O)[C@H](C)[C@@H](O[C@@H]2OC(C)CC(N(C)C)C2O)[C@](C)(OC)C[C@@H](C)C(=O)[C@H](C)[C@H]2N(C/C=C/Cn3cc(-c4nccs4)nn3)C(=O)O[C@]12C (some centres unmarked) [FSM-11562]	> 32	4 (≈ 4.79 µM)	≤ 0.0312	> 32	8 (≈ 9.58 µM)	8 (≈ 9.58 µM)	> 32	> 32	> 32	2 (≈ 2.4 µM)	≤ 0.0312	0.0625 (≈ 0.0748 µM)	16 (≈ 19.2 µM)	> 32	> 32	> 32	4 (≈ 4.79 µM)	16 (≈ 19.2 µM)	> 32	0.0625 (≈ 0.0748 µM)	MIC (S. pneumoniae ATCC 49619): ≤ 0.0312 µg/mL; MIC (K. pneumoniae TEM-10): 32 µg/mL (≈ 38.3 µM); MIC (E. coli CTX-M-14): > 32 µg/mL; MIC [6]: 0.25 µg/mL; MIC (S. aureus MRSA: USA300): 1 µg/mL (≈ 1.2 µM); MIC (A. baumannii IMP-4): > 32 µg/mL; MIC [7]: 8 µg/mL (≈ 9.58 µM); MIC [8]: 0.125 µg/mL (≈ 0.15 µM)
CC[C@H]1OC(=O)[C@H](C)C(=O)[C@H](C)[C@@H](O[C@@H]2OC(C)CC(N(C)C)C2O)[C@](C)(OC)C[C@@H](C)C(=O)[C@H](C)[C@H]2N(C/C=C/Cn3cc(-c4nccs4)nn3)C(=O)O[C@]12C (some centres unmarked) [FSM-11559]	> 32	4 (≈ 4.9 µM)	≤ 0.0312	> 32	16 (≈ 19.6 µM)	16 (≈ 19.6 µM)	> 32	> 32	> 32	4 (≈ 4.9 µM)	≤ 0.0312	0.125 (≈ 0.153 µM)	32 (≈ 39.2 µM)	> 32	> 32	> 32	4 (≈ 4.9 µM)	> 32	> 32	0.125 (≈ 0.153 µM)	MIC (S. pneumoniae ATCC 49619): ≤ 0.0312 µg/mL; MIC (K. pneumoniae TEM-10): > 32 µg/mL; MIC (E. coli CTX-M-14): > 32 µg/mL; MIC [6]: 1 µg/mL; MIC (S. aureus MRSA: USA300): 4 µg/mL (≈ 4.9 µM); MIC (A. baumannii IMP-4): > 32 µg/mL; MIC [7]: 32 µg/mL (≈ 39.2 µM); MIC [8]: 0.125 µg/mL (≈ 0.153 µM)
CC[C@H]1OC(=O)[C@H](C)C(=O)[C@H](C)[C@@H](O[C@@H]2OC(C)CC(N(C)C)C2O)[C@](C)(OC)C[C@@H](C)C(=O)[C@H](C)[C@H]2N(C/C=C/Cn3cc(-c4ccccn4)nn3)C(=O)O[C@]12C (some centres unmarked) [FSM-100341]	> 32	8 (≈ 9.86 µM)	< 0.0312	> 32	16 (≈ 19.7 µM)	32 (≈ 39.5 µM)	> 32	> 32	> 32	1 (≈ 1.23 µM)	< 0.0312	< 0.0312	32 (≈ 39.5 µM)	> 32	> 32	> 32	1 (≈ 1.23 µM)	> 32	> 32	< 0.0312	MIC (S. pneumoniae ATCC 49619): < 0.0312 µg/mL; MIC (K. pneumoniae TEM-10): 32 µg/mL (≈ 39.5 µM); MIC (E. coli CTX-M-14): > 32 µg/mL; MIC [6]: 0.25 µg/mL; MIC (S. aureus MRSA: USA300): 2 µg/mL (≈ 2.47 µM); MIC (A. baumannii IMP-4): > 32 µg/mL; MIC [7]: 16 µg/mL (≈ 19.7 µM); MIC [8]: < 0.0312 µg/mL
CC[C@H]1OC(=O)[C@@](C)(F)C(=O)[C@H](C)[C@@H](O[C@@H]2OC(C)CC(N(C)C)C2O)[C@](C)(OC)C[C@@H](C)C(=O)[C@H](C)[C@H]2N(C/C=C\Cn3cc(-c4cccc(N)c4)nn3)C(=O)O[C@]12C (some centres unmarked) [FSM-100431]	> 32	32 (≈ 38 µM)	< 0.0312	> 32	16 (≈ 19 µM)	8 (≈ 9.49 µM)	> 32	> 32	> 32	> 32	< 0.0312	< 0.0312	> 32	> 32	> 32	> 32	> 32	> 32	> 32	0.125 (≈ 0.148 µM)	MIC (S. pneumoniae ATCC 49619): < 0.0312 µg/mL; MIC (K. pneumoniae TEM-10): > 32 µg/mL; MIC (E. coli CTX-M-14): > 32 µg/mL; MIC [6]: 8 µg/mL; MIC (S. aureus MRSA: USA300): > 32 µg/mL; MIC (A. baumannii IMP-4): > 32 µg/mL; MIC [7]: 16 µg/mL (≈ 19 µM); MIC [8]: < 0.0312 µg/mL
